According to PubChem BioAssay (NCI):
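Exposure lasted 48 hours, with cells grown in 96-well plates and compounds tested at five concentrations. At the TGI there is no net growth.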

Experiments:
Assay in all cases: NCI-60 cell line screen, 48 h
HCT-15 colon = tested on: HCT-15 colon
RPMI-8226 leukemia = tested on: RPMI-8226 leukemia
786-0 renal = tested on: 786-0 renal
OVCAR-5 ovarian = tested on: OVCAR-5 ovarian
SN12C renal = tested on: SN12C renal
SNB-19 CNS = tested on: SNB-19 CNS
IGROV1 ovarian = tested on: IGROV1 ovarian
HL-60(TB) leukemia = tested on: HL-60(TB) leukemia
LOX IMVI melanoma = tested on: LOX IMVI melanoma
RXF 393 renal = tested on: RXF 393 renal
OVCAR-4 ovarian = tested on: OVCAR-4 ovarian
ACHN renal = tested on: ACHN renal
DU-145 prostate = tested on: DU-145 prostate
UACC-62 melanoma = tested on: UACC-62 melanoma
CAKI-1 renal = tested on: CAKI-1 renal
PC-3 prostate = tested on: PC-3 prostate
SK-MEL-5 melanoma = tested on: SK-MEL-5 melanoma

| Compound | TGI (HCT-15 colon) | TGI (RPMI-8226 leukemia) | TGI (786-0 renal) | TGI (OVCAR-5 ovarian) | TGI (SN12C renal) | TGI (SNB-19 CNS) | TGI (IGROV1 ovarian) | TGI (HL-60(TB) leukemia) | TGI (LOX IMVI melanoma) | TGI (RXF 393 renal) | TGI (OVCAR-4 ovarian) | TGI (ACHN renal) | TGI (DU-145 prostate) | TGI (UACC-62 melanoma) | TGI (CAKI-1 renal) | TGI (PC-3 prostate) | TGI (SK-MEL-5 melanoma) |
| --- | --- | --- | --- | --- | --- | --- | --- | --- | --- | --- | --- | --- | --- | --- | --- | --- | --- |
| COc1ccc(/C(=C/n2ccnc2)C(O)c2ccc(OC)c(OC)c2)cc1OC (stereo not drawn) | > 100 µM | > 100 µM | > 100 µM | > 100 µM | > 100 µM | > 100 µM | > 100 µM | > 100 µM | > 100 µM | > 100 µM | > 100 µM |  |  |  |  |  |  |
| COc1ccc(N=NC(=Nc2ccc(Cl)cc2)c2ccc(N(CCC#N)CCC#N)cc2)cc1 | > 100 µM | > 100 µM | > 100 µM | > 100 µM | > 100 µM | > 100 µM | > 100 µM |  |  | > 100 µM | > 100 µM | > 100 µM | > 100 µM | 54.1 µM | > 100 µM | > 100 µM | > 100 µM |
| COC(=O)[C@H]1COC(=O)N1 | > 100 µM |  | > 100 µM | > 100 µM | > 100 µM | > 100 µM | > 100 µM | > 100 µM | > 100 µM | > 100 µM | > 100 µM | > 100 µM | > 100 µM | > 100 µM | > 100 µM |  | > 100 µM |
| O=c1[nH]c(=O)n(C2CC(O)C(CO)O2)c2nc3ccc4cc5ccccc5cc4c3nc12 (stereo not drawn) | > 100 µM | > 100 µM | > 100 µM | > 100 µM | > 100 µM | > 100 µM | > 100 µM |  | > 100 µM | > 100 µM | > 100 µM | > 100 µM | > 100 µM | > 100 µM | > 100 µM | > 100 µM | > 100 µM |
| ONC1=Nc2ccccc2C(=S)N2CSCC12 (stereo not drawn) | > 100 µM | > 100 µM | > 100 µM | > 100 µM | > 100 µM | > 100 µM | > 100 µM |  | > 100 µM | > 100 µM | > 100 µM | > 100 µM | > 100 µM | > 100 µM | > 100 µM | > 100 µM | 99.2 µM |
| COc1ccc(NC(=O)C(C)Oc2ccc(OCC3CCCCC3)cc2)cc1 (stereo not drawn) | > 100 µM |  | > 100 µM |  | > 100 µM | > 100 µM | > 100 µM | > 100 µM | > 100 µM | > 100 µM | > 100 µM | > 100 µM |  | > 100 µM |  |  | > 100 µM |
| CCN(CC)C(=S)SC(C(=O)Nc1nnc(-c2ccccc2)o1)c1ccccc1 (stereo not drawn) | 24.5 µM | > 100 µM | 61.1 µM | 56.1 µM | 32.3 µM | > 100 µM | > 100 µM |  | 17 µM | 39.8 µM | > 100 µM | 57.7 µM | 57.8 µM |  | 50 µM | 66.8 µM | 28.8 µM |
| Cn1c2ccccc2c(=O)c2cccc(C(=O)NCC(=O)O)c21 | > 100 µM | > 100 µM | > 100 µM | > 100 µM | > 100 µM | > 100 µM | > 100 µM |  | > 100 µM |  | > 100 µM | > 100 µM | > 100 µM | > 100 µM |  | > 100 µM | > 100 µM |
| CCOC(OCC)N1C(=O)C2(C(OCC)OCC)CC3C(OC(=O)N3N)c3cccc1c32 (stereo not drawn) | > 100 µM | > 100 µM | > 100 µM | > 100 µM | > 100 µM | > 100 µM | > 100 µM | > 100 µM | > 100 µM | > 100 µM | > 100 µM | > 100 µM | > 100 µM | > 100 µM | > 100 µM |  | > 100 µM |
| Oc1c(Br)cc(/C=C/c2cccc(/C=C/c3cc(Br)c(O)c(Br)c3)n2)cc1Br | 26.3 µM | 27.5 µM | 28 µM | 32.3 µM | 24.3 µM | 29.4 µM | 27.7 µM |  | 28.8 µM |  | 35.7 µM | 52.3 µM | 14.1 µM | 41.8 µM | 45.6 µM | 25.1 µM | 19.8 µM |
| CC(C)(C)OC(=O)NCCCC(=O)NC1(c2cc3ccccc3s2)CCCCC1 | 45.5 µM | 29.6 µM | 37.4 µM |  | 35.9 µM | > 100 µM | 46.2 µM | 24.8 µM | 29.6 µM | 44.1 µM | > 100 µM | 41 µM | > 100 µM | 24.3 µM | 93.1 µM |  | 19.9 µM |
| C=CCN1/C(=C2\SC(=S)N(c3ccc(C)cc3)C2=O)Sc2c1nc[nH]c2=O | > 100 µM | > 100 µM | > 100 µM | > 100 µM | > 100 µM | > 100 µM | > 100 µM | > 100 µM | > 100 µM | > 100 µM | > 100 µM | > 100 µM |  | > 100 µM | > 100 µM |  | > 100 µM |
| CN(C)c1nncc2n[nH]nc12 | > 100 µM | > 100 µM | > 100 µM | > 100 µM | > 100 µM |  | > 100 µM | > 100 µM | > 100 µM |  | > 100 µM | > 100 µM |  | > 100 µM | > 100 µM | > 100 µM | > 100 µM |
| O=C1c2ccccc2C(=O)C1C(c1ccc(F)cc1)C1C(=O)c2ccccc2C1=O | > 100 µM | > 100 µM | > 100 µM | > 100 µM | > 100 µM | > 100 µM |  | > 100 µM | > 100 µM | 71.3 µM | > 100 µM | > 100 µM |  | > 100 µM | > 100 µM |  | > 100 µM |
| Cc1ccc(OCC2OC(n3cnc4c(Cl)nc(Cl)nc43)CC2Oc2ccc(C)cc2)cc1 (stereo not drawn) | 3.27 µM |  | 32.4 µM | 19.1 µM | 17.9 µM | 3.3 µM | 4.48 µM | 6.53 µM | 3.61 µM |  | 4.45 µM | 2.66 µM | 3.84 µM | 4.1 µM | 2.96 µM | 6.57 µM | 19.2 µM |
